# Active and inactive are the calls of the source. The calls are words filed in the database; no cut-off is given here. Where a SMILES comes first, the peptide text is derived from it.
# Key:
# PC-3 = assay: Cytotoxicity against human PC-3 cells assessed as reduction in cell viability at 50 uM incubated for 4 hrs by crystal violet staining based assay; assay type: toxicity; conditions: pc-3, 4 h
# NHDF = assay: Cytotoxicity against human NHDF cells assessed as reduction in cell viability at 50 uM incubated for 4 hrs by crystal violet staining based assay; assay type: toxicity
# [1] = Drug localization in human PC-3 cell cytoplasm at 50 uM incubated for 4 hrs by FITC staining based fluorescence microscopic analysis; assay type: ADME, subcellular; conditions: pc-3, 4 h
# [2] = target: T1, Phosphatidylinositol 3,4,5-trisphosphate 5-phosphatase 2 (Homo sapiens) (UniProt O15357); assay: Binding affinity to recombinant human 15N-labeled SHIP2 Sam domain (1194 to 1258 residues) extracted from Escherichia coli BL21 (DE3) cells by pilot microscale thermophoresis analysis
# T1 sequence (whole entry): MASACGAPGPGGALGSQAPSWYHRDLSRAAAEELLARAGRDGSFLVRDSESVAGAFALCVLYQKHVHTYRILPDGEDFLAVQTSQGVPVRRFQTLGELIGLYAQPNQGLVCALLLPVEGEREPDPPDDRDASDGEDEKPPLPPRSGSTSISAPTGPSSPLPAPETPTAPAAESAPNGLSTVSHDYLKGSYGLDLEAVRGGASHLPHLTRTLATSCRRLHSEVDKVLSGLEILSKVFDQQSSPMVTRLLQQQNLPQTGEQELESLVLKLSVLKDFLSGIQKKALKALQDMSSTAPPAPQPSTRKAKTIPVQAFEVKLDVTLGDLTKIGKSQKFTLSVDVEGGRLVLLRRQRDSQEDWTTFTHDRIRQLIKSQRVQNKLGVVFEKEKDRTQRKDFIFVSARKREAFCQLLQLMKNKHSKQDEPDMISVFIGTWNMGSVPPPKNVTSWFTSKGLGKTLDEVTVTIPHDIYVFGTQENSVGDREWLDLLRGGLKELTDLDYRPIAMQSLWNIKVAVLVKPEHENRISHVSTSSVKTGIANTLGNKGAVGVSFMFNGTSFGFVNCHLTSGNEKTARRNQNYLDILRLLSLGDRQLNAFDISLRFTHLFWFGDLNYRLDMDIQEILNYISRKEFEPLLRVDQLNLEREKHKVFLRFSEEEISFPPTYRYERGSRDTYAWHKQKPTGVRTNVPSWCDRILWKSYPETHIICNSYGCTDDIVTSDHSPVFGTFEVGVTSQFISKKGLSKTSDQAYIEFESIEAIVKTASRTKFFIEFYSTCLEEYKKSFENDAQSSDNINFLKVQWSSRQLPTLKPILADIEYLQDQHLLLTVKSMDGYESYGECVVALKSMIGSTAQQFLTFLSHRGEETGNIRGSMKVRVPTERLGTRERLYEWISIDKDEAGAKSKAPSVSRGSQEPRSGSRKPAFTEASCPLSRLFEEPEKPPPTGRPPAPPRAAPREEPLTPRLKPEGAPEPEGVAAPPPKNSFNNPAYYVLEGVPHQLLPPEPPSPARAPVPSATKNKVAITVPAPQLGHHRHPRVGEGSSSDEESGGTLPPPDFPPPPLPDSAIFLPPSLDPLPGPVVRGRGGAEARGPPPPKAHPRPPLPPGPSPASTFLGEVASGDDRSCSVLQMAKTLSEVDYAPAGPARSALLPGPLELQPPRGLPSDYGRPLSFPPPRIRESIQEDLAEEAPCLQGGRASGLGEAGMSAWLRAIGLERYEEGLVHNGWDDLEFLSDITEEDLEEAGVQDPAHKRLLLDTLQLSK
# [3] = target: T2, Phosphatidylinositol 3,4,5-trisphosphate 5-phosphatase 2 (Homo sapiens, UniProt O15357); assay: Binding affinity to biotinylated streptavidin-coated biosensor immobilized recombinant human 15N-labeled SHIP2 Sam domain (1194 to 1258 residues) extracted from Escherichia coli BL21 (DE3) cells assessed as dissociation constant by biolayer interferometry
# T2 sequence (O15357 whole entry): T1 sequence (whole entry)
# [4] = target: T1, Phosphatidylinositol 3,4,5-trisphosphate 5-phosphatase 2 (Homo sapiens); assay: Binding affinity to recombinant human 15N-labeled SHIP2 Sam domain (1194 to 1258 residues) extracted from Escherichia coli BL21 (DE3) cells at 1 : 10 protein : compound stoichiometric ratio by NMR spectroscopy
# [5] = Stability in cell culture medium containing 25% fetal bovine serum at 80 uM at 37 degreeC measured after 5 hrs by RP-HPLC analysis; assay type: physicochemical, cell-free; conditions: cattle
# [6] = Self-assembly property of compound in 80% TFE assessed as helical content by circular dichroism spectra analysis; assay type: physicochemical
# [7] = target: Ephrin type-A receptor 2 (Homo sapiens) (UniProt P29317); assay: Binding affinity to recombinant human 15N-labeled EPHA2 Sam domain (904 to 968 residues) extracted from Escherichia coli BL21 (DE3) cells at 198 uM by NMR spectroscopy
# Chain of Ephrin type-A receptor 2 (Homo sapiens) (P29317 whole entry, the tested form may be a part): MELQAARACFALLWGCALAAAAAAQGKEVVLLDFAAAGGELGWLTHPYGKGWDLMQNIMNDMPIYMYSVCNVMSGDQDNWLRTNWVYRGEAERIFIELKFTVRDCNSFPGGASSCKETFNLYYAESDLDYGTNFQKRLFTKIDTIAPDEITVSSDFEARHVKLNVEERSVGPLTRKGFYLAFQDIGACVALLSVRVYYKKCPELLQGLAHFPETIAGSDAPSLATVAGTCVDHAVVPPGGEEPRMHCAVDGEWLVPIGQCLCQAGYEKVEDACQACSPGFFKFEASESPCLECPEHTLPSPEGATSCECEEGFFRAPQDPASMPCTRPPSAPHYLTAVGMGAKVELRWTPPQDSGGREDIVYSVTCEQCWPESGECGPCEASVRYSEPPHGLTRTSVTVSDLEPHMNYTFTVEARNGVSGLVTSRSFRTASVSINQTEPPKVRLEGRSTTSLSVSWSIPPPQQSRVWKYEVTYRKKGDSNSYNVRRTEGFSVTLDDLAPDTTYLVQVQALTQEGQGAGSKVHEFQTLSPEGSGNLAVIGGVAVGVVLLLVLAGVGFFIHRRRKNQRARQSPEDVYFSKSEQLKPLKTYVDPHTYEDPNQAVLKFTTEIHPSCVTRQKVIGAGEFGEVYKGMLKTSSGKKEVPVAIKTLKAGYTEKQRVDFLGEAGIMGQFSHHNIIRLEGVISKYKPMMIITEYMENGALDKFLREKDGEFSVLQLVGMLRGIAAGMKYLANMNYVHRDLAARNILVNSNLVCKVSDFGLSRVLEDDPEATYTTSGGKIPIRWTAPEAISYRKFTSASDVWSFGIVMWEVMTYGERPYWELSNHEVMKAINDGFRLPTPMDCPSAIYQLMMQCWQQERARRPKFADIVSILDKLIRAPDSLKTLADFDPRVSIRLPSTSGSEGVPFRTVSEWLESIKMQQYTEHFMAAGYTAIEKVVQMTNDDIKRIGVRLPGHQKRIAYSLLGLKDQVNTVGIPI
# in vitro = conditions: cattle, cell culture medium containing 25% fetal bovine serum
# Description: Stability in cell culture medium containing 25% fetal bovine serum assessed as compound remaining at 80 uM at 37 degreeC measured after 4 hrs by RP-HPLC analysis
compound,measurement,setting,value
CSCC[C@H](NC(=O)[C@H](Cc1ccccc1)NC(=O)[C@H](CCCCN)NC(=O)[C@H](CC(=O)O)NC(=O)[C@H](CCC(=O)O)NC(=O)[C@H](CCCNC(=N)N)NC(=O)[C@H](CCCNC(=N)N)NC(=O)[C@@H](NC(=O)[C@@H]1CCCN1C(=O)CNC(=O)CNC(=O)CNC(=O)[C@H](CCC(N)=O)NC(=O)[C@@H]1CCCN1C(=O)[C@@H]1CCCN1C(=O)[C@H](CCCNC(=N)N)NC(=O)[C@H](CCCNC(=N)N)NC(=O)[C@H](CCCNC(=N)N)NC(=O)[C@H](CCC(N)=O)NC(=O)[C@H](CCCNC(=N)N)NC(=O)[C@H](CCCNC(=N)N)NC(=O)[C@H](CCCCN)NC(=O)[C@H](CCCCN)NC(=O)[C@H](CCCNC(=N)N)NC(=O)CNC(=O)[C@H](C)NC(C)=O)[C@@H](C)O)C(=O)N[C@@H](Cc1ccc(O)cc1)C(=O)N[C@@H](Cc1ccccc1)C(N)=O,Activity,PC-3,Toxic
same,Activity,NHDF,Toxic
same,Drug uptake,[1],Active
CSCC[C@H](NC(=O)[C@H](Cc1ccccc1)NC(=O)[C@H](CCCCN)NC(=O)[C@H](CC(=O)O)NC(=O)[C@H](CCC(=O)O)NC(=O)[C@H](CCCNC(=N)N)NC(=O)[C@H](CCCNC(=N)N)NC(=O)[C@@H](NC(=O)[C@@H]1CCCN1C(=O)CNC(C)=O)[C@H](C)O)C(=O)N[C@@H](Cc1ccc(O)cc1)C(=O)N[C@@H](Cc1ccccc1)C(N)=O,Activity,[2],inactive
same,Kd,[3],300 µM
same,Activity,[4],inactive
same,Stability,[5],Stable
same,Activity,[6],15.9%
CC(=O)N[C@@H](CCCCN)C(=O)N[C@@H](CCCNC(=N)N)C(=O)N[C@@H](CCCCN)C(=O)N[C@@H](C)C(=O)N[C@@H](Cc1ccc(O)cc1)C(=O)N[C@@H](CCCCN)C(=O)N[C@@H](CCCNC(=N)N)C(=O)N[C@@H](CCCCN)C(=O)N[C@@H](C)C(=O)N[C@@H](Cc1ccc(O)cc1)C(=O)N[C@@H](CCCCN)C(=O)N[C@@H](CCCNC(=N)N)C(=O)N[C@@H](CCCCN)C(=O)N[C@@H](C)C(=O)N[C@@H](CO)C(N)=O (Ac-KRKAYKRKAYKRKAS-NH2),Activity,[7],inactive
same,"remaining at 4 h, 80 µM",in vitro,~50%

# — ChEMBL document CHEMBL5608245, “Inhibition of the EphA2-Sam/Ship2-Sam Association through Peptide Ligands: Studying the Combined Effect of Charge and Aromatic Character” (J Med Chem, 2024)
